# Measurements reported in patent US20190209454A9, “DETERMINATION OF MELANIN INHIBITION POTENTIAL OF NATURAL INGREDIENTS” (Kemin Industries, Inc., priority 2016, published 2019).
# Experiments:
# [1] = system: mushroom tyrosinase; assay: Tyrosinase inhibition assay; assay type: biochemical; conditions: for tyrosinase enzyme inhibition versus kojic acid: even at high concentrations (5%)
# Protocol: Rosamox (0.1%, 0.05% and 0.01%), Lysofix dry (0.1%, 0.05% & 0.01%) and Chinese lantern oil (0.1%, 0.05%, 0.01% & 0.005%) were tested for inhibition of tyrosinase enzyme activity. Kojic acid (2%, 1% & 0.5%), β-arbutin (5%, 2%, 1% & 0.5%) and hydroquinone (5%, 2%, 1% & 0.5%) served as positive controls in this study. Rosamox and Chinese lantern oil samples were prepared in Dimethylsulfoxide (DMSO). Lysofix sample, positive controls, 3,4-dihydroxyphenyl-alanine (L-DOPA) and mushroom tyrosinase were prepared using 0.1 M phosphate buffer (pH-6.6).
# Tyrosinase inhibition potential of natural ingredients was measured using a modified method published previously by Uchida et al^12. Briefly, the test samples or positive control (20 μL) were added to the reaction mixture containing 0.12 mL of 0.1 M potassium phosphate buffer (pH 6.6) in 96 well microplates and incubated at room temperature for 2 minutes. After 2 minutes of incubation, 40 μL of 10 mM L-DOPA solution was added to the reaction mixture and incubated for 5 minutes at 37° C. using a benchtop incubator (Fisher scientific, PA). Twenty microliters of mushroom tyrosinase (200 units/mL) was added to the above reaction mixture and incubated at 37° C. in a conventional lab incubator (Fisher Scientific, PA) for 10 minutes. The amount of dopachrome produced in the reaction mixture was measured spectrophotometrically using Spectramax Me5 plate reader at 475 nm. The tyrosinase activity and the % inhibition of tyrosinase in presence of test material were calculated as follows:
# Tyrosinase activity=(S(Abs)−B(Abs))/C(Abs)×100
# Inhibition (%)=1−{(S(Abs)−B(Abs))}/C(Abs)×100 Equation 1. • Formula for Measuring tyrosinase activity and % tyrosinase inhibition, where S(Abs)—sample absorbance; B(Abs)—Blank absorbance (Without enzyme) and C(Abs)—Control Absorbance [Buffer and DMSO].
# [2] = system: melanocyte-keratinocyte co-culture (HEK001 keratinocytes and primary epidermal melanocytes); assay: Melanin inhibition in melanocyte-keratinocyte co-culture; assay type: cell-based, human
# Protocol: Cell culture studies were performed using Human Epidermal Keratinocytes (HEK) continuous cell lines [HEK001 (ATCC® CRL-2404™) lot #61331463] and Primary epidermal melanocytes (ATCC PCS-200-013, lot #60948598). HEK cells were grown in the HEK growth media consisting of keratinocytes serum free medium (GIBCO-BRL 17005042, lot #1638561) with 5 ng/mL human recombinant epidermal growth factor (EGF) (ATCC, lot #1584416) and 2 mM L-glutamine (ATCC, lot #62195752) (without bovine pituitary extract and serum). HEK growth media was supplemented with penicillin (10000 units) and streptomycin (10 mg/mL) solution (Gibco, lot #1469707). Primary epidermal melanocytes growth media consisting of Dermal cell basal medium (ATCC PCS-200-030) with Melanocytes Growth kit [ATCC PCS-200-042] (rh Insulin 5 μg/mL, Ascorbic acid 50 μg/mL, L-glutamine 6 mM, Epinephrine calcium chloride 1.5 μM peptide growth factor and M8 supplement) and supplemented with penicillin (10 units/mL)-streptomycin (10 μg/mL)-Amphotericin B solution (25 ng/mL). […]
# HEK cells were harvested by treatment with trypsin/EDTA solution and resuspended in HEK media. Viable cells were determined by trypan blue exclusion study and counted using a hemocytometer. […]
# [3] = system: MelanoDerm tissue; assay: Microscopic observation of MelanoDerm tissue; assay type: cell-based, human; conditions: end of 21 days
# Protocol: For visualization of treatment effect on tissue culture, microscopic observation of MelanoDerm tissue on day 1, 4, 10, 14 and finally on day 21 was carried out using glass bottom microwell dish with the help of benchtop inverted microscope (Nikon Inc., NY) at 20× magnification. Images were captured using Tucsen camera (Xintu Photonics Co., China) attached to the microscope.
# [4] = system: murine melanoma cell model; conditions: cited from earlier work
smiles,measurement,setting,value
OC[C@H]1O[C@@H](Oc2ccc(O)cc2)[C@H](O)[C@@H](O)[C@@H]1O [β-arbutin],tyrosinase enzyme inhibition versus kojic acid,[1],not as effective as kojic acid
"O=c1cc(CO)occ1O [kojic acid, Kojic acid]",tyrosinase enzyme inhibition compared to control,"[1]; all concentrations (0.5%, 1% and 2%)",effective in inhibiting tyrosinase enzyme
same,melanin production compared to control,"[2]; 2% (highest tested concentration), p<0.005",maximum effect
same,melanin production compared to control,"[2]; tested concentrations (2%, 1%, 0.5%), 5 days treatment",significant reduction in melanin production
same,melanin granules in microscopic images,[3]; 0.5%,presence of some melanin granules
same,melanin granules in microscopic images,[3]; 1% and 2%,no sign of melanin granules
"Oc1ccc(O)cc1 [Hydroquinone, hydroquinone]",tyrosinase enzyme inhibition versus kojic acid,[1],not as effective as kojic acid
CCCCC/C=C\C/C=C\CCCCCCCC(=O)O [Linoleic acid],reduction of melanogenesis and amount of tyrosinase protein,[4],effective in reduction of melanogenesis
